Results reported in ChEMBL document CHEMBL5291721, “A preclinical secondary pharmacology resource illuminates target-adverse drug reaction associations of marketed drugs” (Nat Commun, 2023).

Assays:
[1] = biological target: Gamma-aminobutyric acid receptor subunit alpha-1 (Rattus norvegicus, UniProt P62813)
[2] = biological target: T1, Alpha-2A adrenergic receptor (Homo sapiens, UniProt P08913)
T1 sequence (P08913 whole entry): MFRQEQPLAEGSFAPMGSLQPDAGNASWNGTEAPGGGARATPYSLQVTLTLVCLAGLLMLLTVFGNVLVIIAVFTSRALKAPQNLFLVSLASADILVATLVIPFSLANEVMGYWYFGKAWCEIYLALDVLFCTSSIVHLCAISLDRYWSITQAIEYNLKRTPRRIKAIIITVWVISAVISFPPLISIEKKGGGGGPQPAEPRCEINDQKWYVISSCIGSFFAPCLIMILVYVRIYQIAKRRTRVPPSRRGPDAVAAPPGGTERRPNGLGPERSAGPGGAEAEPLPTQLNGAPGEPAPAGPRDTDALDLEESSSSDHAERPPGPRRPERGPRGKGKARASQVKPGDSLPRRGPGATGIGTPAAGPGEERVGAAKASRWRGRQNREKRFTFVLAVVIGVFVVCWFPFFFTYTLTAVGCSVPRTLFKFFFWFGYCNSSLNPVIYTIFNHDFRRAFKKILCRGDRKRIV

[3] = biological target: T2, Alpha-1A adrenergic receptor (Homo sapiens, UniProt P35348); format: functional, cell-based
T2 sequence (P35348 whole entry): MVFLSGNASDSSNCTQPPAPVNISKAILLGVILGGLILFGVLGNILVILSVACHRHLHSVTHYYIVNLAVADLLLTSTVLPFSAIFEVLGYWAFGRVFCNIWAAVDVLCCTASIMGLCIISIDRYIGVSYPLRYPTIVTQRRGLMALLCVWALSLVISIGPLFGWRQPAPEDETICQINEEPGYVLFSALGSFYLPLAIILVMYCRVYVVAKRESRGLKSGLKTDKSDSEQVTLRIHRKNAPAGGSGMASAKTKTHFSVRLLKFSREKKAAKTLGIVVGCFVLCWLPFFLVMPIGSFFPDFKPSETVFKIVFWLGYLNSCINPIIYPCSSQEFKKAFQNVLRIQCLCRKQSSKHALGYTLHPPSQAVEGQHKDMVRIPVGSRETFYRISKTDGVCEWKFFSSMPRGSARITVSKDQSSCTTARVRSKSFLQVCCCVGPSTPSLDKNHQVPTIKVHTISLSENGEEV

Estrogen receptor = biological target: T3, Estrogen receptor (Homo sapiens, UniProt P03372)
T3 sequence (P03372 whole entry): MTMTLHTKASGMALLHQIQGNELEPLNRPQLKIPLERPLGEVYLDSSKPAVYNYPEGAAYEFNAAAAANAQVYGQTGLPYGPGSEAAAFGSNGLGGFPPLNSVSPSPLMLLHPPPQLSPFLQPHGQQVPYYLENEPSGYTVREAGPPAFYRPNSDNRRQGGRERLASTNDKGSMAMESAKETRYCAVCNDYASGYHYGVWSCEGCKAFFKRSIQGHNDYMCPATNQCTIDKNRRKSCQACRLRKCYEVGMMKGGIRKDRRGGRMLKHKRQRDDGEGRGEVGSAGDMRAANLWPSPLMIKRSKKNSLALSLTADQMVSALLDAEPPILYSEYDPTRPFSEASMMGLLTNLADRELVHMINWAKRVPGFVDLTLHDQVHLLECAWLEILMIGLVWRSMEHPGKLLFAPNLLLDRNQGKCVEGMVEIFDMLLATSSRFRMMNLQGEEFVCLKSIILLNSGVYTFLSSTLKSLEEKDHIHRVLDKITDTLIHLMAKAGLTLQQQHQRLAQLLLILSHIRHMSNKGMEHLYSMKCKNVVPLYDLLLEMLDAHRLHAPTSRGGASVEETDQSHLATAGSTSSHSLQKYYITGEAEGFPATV

Thromboxane A2 receptor = biological target: T4, Thromboxane A2 receptor (Homo sapiens, UniProt P21731); format: functional, cell-based
T4 sequence (P21731 whole entry): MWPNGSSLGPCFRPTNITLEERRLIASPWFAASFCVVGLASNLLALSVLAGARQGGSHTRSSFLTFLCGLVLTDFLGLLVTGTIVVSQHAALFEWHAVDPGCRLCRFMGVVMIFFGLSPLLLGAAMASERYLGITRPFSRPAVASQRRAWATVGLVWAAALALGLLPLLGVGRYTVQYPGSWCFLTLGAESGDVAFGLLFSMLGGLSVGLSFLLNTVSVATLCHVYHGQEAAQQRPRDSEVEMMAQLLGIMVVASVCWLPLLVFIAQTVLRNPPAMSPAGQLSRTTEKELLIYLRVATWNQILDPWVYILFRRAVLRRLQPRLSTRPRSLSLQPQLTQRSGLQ

[4] = biological target: T5, Muscarinic acetylcholine receptor M2 (Homo sapiens, UniProt P08172)
T5 sequence (P08172 whole entry): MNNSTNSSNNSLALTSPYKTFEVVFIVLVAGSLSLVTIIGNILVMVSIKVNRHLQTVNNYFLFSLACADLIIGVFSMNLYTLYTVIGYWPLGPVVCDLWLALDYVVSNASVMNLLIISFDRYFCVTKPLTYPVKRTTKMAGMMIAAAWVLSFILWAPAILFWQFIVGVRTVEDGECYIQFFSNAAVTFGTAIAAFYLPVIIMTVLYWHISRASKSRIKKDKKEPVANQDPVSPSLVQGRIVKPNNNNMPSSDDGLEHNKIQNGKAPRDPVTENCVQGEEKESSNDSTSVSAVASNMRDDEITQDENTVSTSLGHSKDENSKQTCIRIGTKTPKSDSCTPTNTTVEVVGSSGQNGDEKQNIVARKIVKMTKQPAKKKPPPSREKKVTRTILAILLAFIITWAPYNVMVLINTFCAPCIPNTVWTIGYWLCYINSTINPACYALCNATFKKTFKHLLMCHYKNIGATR

Measured: AC50
Further: assay procedure not described here.

Sequence of Gamma-aminobutyric acid receptor subunit alpha-1 (P62813 whole entry): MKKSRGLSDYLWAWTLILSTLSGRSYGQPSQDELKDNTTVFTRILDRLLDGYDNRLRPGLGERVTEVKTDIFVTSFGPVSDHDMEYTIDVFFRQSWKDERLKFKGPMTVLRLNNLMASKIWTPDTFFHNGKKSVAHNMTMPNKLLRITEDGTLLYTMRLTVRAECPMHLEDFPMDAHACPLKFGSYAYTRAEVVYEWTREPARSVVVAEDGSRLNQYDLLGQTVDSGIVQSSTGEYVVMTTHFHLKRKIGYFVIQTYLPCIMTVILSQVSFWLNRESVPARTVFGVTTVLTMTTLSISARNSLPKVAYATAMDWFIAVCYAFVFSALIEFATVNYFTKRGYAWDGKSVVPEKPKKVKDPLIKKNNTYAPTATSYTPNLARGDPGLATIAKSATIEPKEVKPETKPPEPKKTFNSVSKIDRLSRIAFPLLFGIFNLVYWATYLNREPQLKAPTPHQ

CCN(CC)C(=O)C1(c2ccccc2)CC1CN (stereo unspecified)
> 30 µM: [1]

CN(C)C(=O)Oc1cccc([N+](C)(C)C)c1 [NEOSTIGMINE]
> 30 µM: [2] | [3] | Estrogen receptor | Thromboxane A2 receptor | [4]
